According to patent publication US20260258035A1, “FIVE-MEMBERED AND SIX-MEMBERED NITROGEN-CONTAINING COMPOUND, AND INTERMEDIATE, PREPARATION METHOD AND USE THEREOF” (HANGZHOU SYNRX THERAPEUTICS BIOMEDICAL TECHNOLOGY CO., LTD., priority 2022, published 2026):
Read-outs that look alike come from different tables or passages of the source.

How the values were obtained:
HCC1806 = assay: Cell viability assay (CellTiter-Glo); assay type: cell-based, Human; settings: HCC1806, 7 days, CellTiter-Glo, read-out: IC50 (nM) in cell viability assay
PARG = PARG (Homo sapiens, UniProt Q86W56); assay: Biochemical assay (PARG, TFMU-ADPr substrate); settings: PARG, TFMU-ADPr substrate
PARG, sequence (Q86W56 whole entry): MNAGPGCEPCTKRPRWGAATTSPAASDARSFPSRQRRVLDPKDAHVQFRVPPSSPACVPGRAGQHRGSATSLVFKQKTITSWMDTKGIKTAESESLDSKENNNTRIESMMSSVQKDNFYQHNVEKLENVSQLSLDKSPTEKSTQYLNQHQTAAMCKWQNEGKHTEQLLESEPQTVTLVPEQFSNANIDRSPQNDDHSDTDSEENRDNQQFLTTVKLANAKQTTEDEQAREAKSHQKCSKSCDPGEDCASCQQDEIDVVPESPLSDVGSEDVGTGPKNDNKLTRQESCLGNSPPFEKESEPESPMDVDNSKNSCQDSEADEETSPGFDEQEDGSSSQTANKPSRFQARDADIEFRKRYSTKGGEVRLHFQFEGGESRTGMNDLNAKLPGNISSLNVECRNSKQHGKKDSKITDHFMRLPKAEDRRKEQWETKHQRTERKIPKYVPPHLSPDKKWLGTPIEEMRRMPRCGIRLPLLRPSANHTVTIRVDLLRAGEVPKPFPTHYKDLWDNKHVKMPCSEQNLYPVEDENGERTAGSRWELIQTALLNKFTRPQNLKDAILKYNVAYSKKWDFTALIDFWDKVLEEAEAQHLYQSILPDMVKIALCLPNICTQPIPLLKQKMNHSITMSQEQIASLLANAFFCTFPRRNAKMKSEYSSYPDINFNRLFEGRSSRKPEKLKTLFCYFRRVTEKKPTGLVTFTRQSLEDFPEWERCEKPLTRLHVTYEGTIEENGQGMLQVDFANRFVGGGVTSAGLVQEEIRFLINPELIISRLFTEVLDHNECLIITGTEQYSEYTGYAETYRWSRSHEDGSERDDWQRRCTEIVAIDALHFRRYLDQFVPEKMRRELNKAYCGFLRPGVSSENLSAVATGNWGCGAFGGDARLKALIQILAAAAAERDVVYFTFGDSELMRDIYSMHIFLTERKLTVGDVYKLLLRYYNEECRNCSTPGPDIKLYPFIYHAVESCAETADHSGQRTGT

| Compound | IC50 (HCC1806; Homo sapiens, HCC1806, 168 h) [nM] | IC50 (PARG) [nM] | IC50 (HCC1806) [nM] |
| --- | --- | --- | --- |
| N#CC1(NS(=O)(=O)c2cc(N3CCN(C(=O)C4CC(O)C4)CC3)c3cnc(-c4nnc(C(F)(F)F)s4)n3c2)CC1 (stereo not drawn) [Example 283, N-(1-cyanocyclopropyl)-8-(4-(3-hydroxycyclobutane-1-carbonyl)piperazin-1-yl)-3-(5-(trifluoromethyl)-1,3,4-thiadiazol-2-yl)imidazo[1,5-a]pyridine-6-sulfonamide] | 539 | 3.8 | – |
| CC(C)C(=O)N1CCN(c2cc(S(=O)(=O)NC3(C)CC3)cn3c(-c4nnc(C(F)F)s4)nc(C#N)c23)C[C@H]1C [Example 165, (R)-1-cyano-3-(5-(difluoromethyl)-1,3,4-thiadiazol-2-yl)-8-(4-isobutyryl-3-methylpiperazin-1-yl)-N-(1-methylcyclopropyl)imidazo[1,5-a]pyridine-6-sulfonamide] | 1000 | 20 | – |
| [2H]c1nc(-c2nnc(C(F)(F)F)s2)n2cc(S(=O)(=O)NC3(C#N)CC3)cc(N3CCN(C(=O)C4CC4)CC3)c12 [Example 157, N-(1-cyanocyclopropyl)-8-(4-(cyclopropanecarbonyl)piperazin-1-yl)-3-(5-(trifluoromethyl)-1,3,4-thiadiazol-2-yl)imidazo[1,5-a]pyridine-6-sulfonamide-1-d] | 1020 | 33.1 | – |
| N#CC1(NS(=O)(=O)c2cc(C3=CCN(C(=O)C4(O)CC4)CC3)c3cnc(-c4nnc(C(F)(F)F)s4)n3c2)CC1 [Example 371, N-(1-cyanocyclopropyl)-8-(1-(1-hydroxycyclopropane-1-carbonyl)-1,2,3,6-tetrahydropyridin-4-yl)-3-(5-(trifluoromethyl)-1,3,4-thiadiazol-2-yl)imidazo[1,5-a]pyridine-6-sulfonamide] | 360 | 4.57 | – |
| CN(C)CC1(O)CCN(c2cc(S(=O)(=O)NC3(C)CC3)cn3c(-c4nnc(C(F)F)s4)ncc23)CC1 [Example 337, 3-(5-(difluoromethyl)-1,3,4-thiadiazol-2-yl)-8-(4-((dimethylamino)methyl)-4-hydroxypiperidin-1-yl)-N-(1-methylcyclopropyl)imidazo[1,5-a]pyridine-6-sulfonamide] | 245 | 4.82 | – |
| N-(1-cyanocyclopropyl)-8-(4-(oxetane-3-carbonyl)piperazin-1-yl)-3-(5-(trifluoromethyl)-1,3,4-thiadiazol-2-yl)imidazo[1,5-a]pyridine-6-sulfonamide [Example 294] | – | 12 | 110 |
| CC1(NS(=O)(=O)c2cc(N3CCN(C(=O)C4CNC4)CC3)c3cnc(-c4nnc(C(F)(F)F)s4)n3c2)CC1 [Example 277, 8-(4-(azetidine-3-carbonyl)piperazin-1-yl)-N-(1-methylcyclopropyl)-3-(5-(trifluoromethyl)-1,3,4-thiadiazol-2-yl)imidazo[1,5-a]pyridine-6-sulfonamide] | 4470 | 25.1 | – |
| CC(C)C(=O)N1CCN(c2cc(S(=O)(=O)NC3(C#N)CC3)cn3c(-c4nnc(C(F)(F)F)s4)ncc23)C(C)C1 (stereo not drawn) [Example 344, N-(1-cyanocyclopropyl)-8-(4-isobutyryl-2-methylpiperazin-1-yl)-3-(5-(trifluoromethyl)-1,3,4-thiadiazol-2-yl)imidazo[1,5-a]pyridine-6-sulfonamide] | 586 | 38.3 | – |
| N#CC1(NS(=O)(=O)c2cc(N3CCNCC3)c3cnc(-c4nnc(C(F)(F)F)s4)n3c2)CC1 [Example 233, N-(1-cyanocyclopropyl)-8-(piperazin-1-yl)-3-(5-(trifluoromethyl)-1,3,4-thiadiazol-2-yl)imidazo[1,5-a]pyridine-6-sulfonamide] | 3000 | 45.7 | – |
| COCC1CN(c2cc(S(=O)(=O)NC3(C)COC3)cn3c(-c4nnc(C(F)(F)F)s4)ncc23)CCN1 (stereo not drawn) [Example 358, 8-(3-(methoxymethyl)piperazin-1-yl)-N-(3-methyloxetan-3-yl)-3-(5-(trifluoromethyl)-1,3,4-thiadiazol-2-yl)imidazo[1,5-a]pyridine-6-sulfonamide] | 261 | 15.8 | – |
| CC1(NS(=O)(=O)c2cc(N3CCN(C(=O)C4CCOCC4)CC3)c3cnc(-c4nnc(C(F)(F)F)s4)n3c2)CC1 [Example 292, N-(1-methylcyclopropyl)-8-(4-(tetrahydro-2H-pyran-4-carbonyl)piperazin-1-yl)-3-(5-(trifluoromethyl)-1,3,4-thiadiazol-2-yl)imidazo[1,5-a]pyridine-6-sulfonamide] | 40 | 4.57 | – |
| COC1(C(=O)N2[C@@H](C)CN(c3cc(S(=O)(=O)NC4(C)COC4)cn4c(-c5nnc(C(F)F)s5)ncc34)C[C@@H]2C)CC1 [Example 399, 3-(5-(difluoromethyl)-1,3,4-thiadiazol-2-yl)-8-((3S,5S)-4-(1-methoxycyclopropane-1-carbonyl)-3,5-dimethylpiperazin-1-yl)-N-(3-methyloxetan-3-yl)imidazo[1,5-a]pyridine-6-sulfonamide] | 755 | 12.6 | – |

The remaining compounds from weak to strong by IC50 (HCC1806; Homo sapiens, HCC1806, 168 h), led by results:

| IC50 (HCC1806; Homo sapiens, HCC1806, 168 h) [nM] | IC50 (PARG) [nM] | Compound | IC50 (HCC1806) [nM] |
| --- | --- | --- | --- |
| 2820 | 39.8 | CC(C)N1CC(C(=O)N2CCN(c3cc(S(=O)(=O)NC4(C#N)CC4)cn4c(-c5nnc(C(F)F)s5)ncc34)C[C@H]2C)C1 [Example 295, (R)-N-(1-cyanocyclopropyl)-3-(5-(difluoromethyl)-1,3,4-thiadiazol-2-yl)-8-(4-(1-isopropylazetidine-3-carbonyl)-3-methylpiperazin-1-yl)imidazo[1,5-a]pyridine-6-sulfonamide] | – |
| 2110 | 191 | CC(O)(C#Cc1ccccc1)C(=O)N1CCN(c2cc(S(=O)(=O)NC3(C#N)CC3)cn3c(-c4nnc(C(F)(F)F)s4)ncc23)CC1 (stereo not drawn) [Example 257, N-(1-cyanocyclopropyl)-8-(4-(2-hydroxy-2-methyl-4-phenylbut-3-ynoyl)piperazin-1-yl)-3-(5-(trifluoromethyl)-1,3,4-thiadiazol-2-yl)imidazo[1,5-a]pyridine-6-sulfonamide] | – |
| 1200 | 36.3 | CC(C)C(=O)N1CCN(c2cc(S(=O)(=O)NC3(C#N)CC3)cn3c(-c4nnc(C(F)(F)F)s4)nc(Cl)c23)C[C@H]1C [Example 130, (R)-1-chloro-N-(1-cyanocyclopropyl)-8-(4-isobutyryl-3-methylpiperazin-1-yl)-3-(5-(trifluoromethyl)-1,3,4-thiadiazol-2-yl)imidazo[1,5-a]pyridine-6-sulfonamide] | – |
| 929 | 83.2 | CC(C)C(=O)N1CCN(c2cc(S(=O)(=O)NC3CC3)cn3c(-c4nnc(C(F)(F)F)s4)ncc23)CC1 [Example 210, N-cyclopropyl-8-(4-isobutyrylpiperazin-1-yl)-3-(5-(trifluoromethyl)-1,3,4-thiadiazol-2-yl)imidazo[1,5-a]pyridine-6-sulfonamide] | – |
| 257 | 1.99 | COC1CN(c2cc(S(=O)(=O)NC3(C)CC3)cn3c(-c4nnc(C(F)F)s4)ncc23)CCC1O (stereo not drawn) [Example 348, 3-(5-(difluoromethyl)-1,3,4-thiadiazol-2-yl)-8-(4-hydroxy-3-methoxypiperidin-1-yl)-N-(1-methylcyclopropyl)imidazo[1,5-a]pyridine-6-sulfonamide] | – |
| 15 | 0.54 | COC1(C(=O)N2CCN(c3cc(S(=O)(=O)NC4(C)COC4)cn4c(-c5nnc(C(F)(F)F)s5)ncc34)CC2)CC1 [Example 177, 8-(4-(1-methoxycyclopropane-1-carbonyl)piperazin-1-yl)-N-(3-methyloxetan-3-yl)-3-(5-(trifluoromethyl)-1,3,4-thiadiazol-2-yl)imidazo[1,5-a]pyridine-6-sulfonamide] | – |
